Experimental data as given in patent US20260284075A1, “UNIT DOSAGE COMPOSITION COMPRISING MIDAZOLAM” (B. Braun Melsungen AG, priority 2023, published 2026).

Test: Pharmacokinetic evaluation of oral thin films in dogs (midazolam in plasma, LC-MS/MS)
Type: in vivo, Marshall Beagle dogs
Conditions: from cyclodextrin-containing films
Procedure: To investigate the local tolerability and pharmacokinetics of the four oral thin films prepared according to Example 1, the oral thin films containing 3.0 mg of midazolam HCl (corresponding to 2.7 mg of midazolam free base) were subsequently applied to 6 non-naïve Marshall Beagle dogs (3 male weighing 8.6-11 kg and 3 female weighing 7.5-8.1 kg) with at least 3 days washout phase between the treatments. DORMICUM® 7.5 mg tablets and a Midazolam 5 mg/mL solution for injection/infusion (obtained from B. Braun) were used as reference. The dogs were fastened before dose administration and during the period of the experiment. On the days of treatment, the animals were offered their first daily meal after collection of the blood sample 2 hours after dose, and the second meal of the day was given after collection of the blood sample 6 hours after dose.
Blood samples were taken from the dogs before the treatment, and 2, 5, 10, 30, 60, 120, and 360 minutes after the dose administration. Blood samples of approximately 2 mL were collected from the saphenous vein. […]
The concentration of midazolam in the blood samples was determined using validated liquid chromatography-mass spectrometry (LC-MS/MS) methods. […] The concentration of analytes in unknown samples was calculated using the analyte/internal standard area ratios. […] It was well mixed and the samples analyzed by using LC-MS/MS.

## Cc1ncc2n1-c1ccc(Cl)cc1C(c1ccccc1F)=NC2 [midazolam, 8-chloro-6-(2-fluoropheny)-1-methyl-4H-imidazo[1,5-α][1,4]benzodiazepine]
  time within which midazolam is absorbed through the oral mucosa: ≤ 10 min
